Measurements: patent publication US4186136A, “Novel benzothienyl amino (propyl and butyl) ketones, a method of preparation thereof and their application to therapeutics” (priority 1975, dated 1980)
Converted amounts (≈) assume the structure as drawn. Where a name gives a salt, the structure may show the parent alone.

Assays:
mouse = test: Acute toxicity, oral, mouse (LD 50, Miller and Tainter); type: in vivo; conditions: death rate checked for seven days, 10080 min
Experimental: (§1) The acute toxicity of the compounds of formula (I) were evaluated orally (esophagean probe) on a mouse deprived of food 18 hours before the beginning of the test. The products were placed in suspension in a solution of dilute carboxymethyl cellulose. Calculation of the 50 lethal dose (LD 50) was effected according to the method of Miller and Tainter (Miller L. C., Tainter M. L., Proc. Soc. Exptl. Biol. Med. 1944, 57, 261-264).
(§2) The death rate was checked for seven days following the treatment.
(§3) Table III gives the 50% lethal doses (LD 50) in milligrammes per kilogramme body weight.

[1] = tested on: human blood-plaques (aggregation with D.P.A.); test: Inhibition of blood-plaque aggregation induced by D.P.A.; type: cell-based
Excerpt: (§4) The blood plaques used for these studies were human blood-plaques introduced into the test in the form of blood-plaque rich plasmas (B.P.R.P.).
(§5) These latter were obtained as water-repellent material by slow centrifugation from human blood samples.
(§6) The study of blood-plaque aggregation was made by means of an aggregate-meter with continuous agitation and graphic recording according to the conventional method. (PROST R. S., SOUVERAIN C. H., DOUMENC J., Etude de l'agregation plaquettaire a l'aide de l'agregametre de MUSTARD-Coagulation, 1971, 4, 2, 145-151).
(§7) The agents employed for inducing aggregation were diphosphoric adenosine acid (D.P.A.), 1-(3',4'-di-hydroxyphenyl)-2-methylamino ethanol (adrenaline) and collagene. All these reactants were prepared from mother solutions diluted in a Michaelis' buffer. Their concentration in the test may vary according to the affinity of the blood-plaques.
(§8) An optimum concentration is thus sought by successive tests on the same B.P.R.P.
(§9) The inhibitory activity on the aggregation was evaluated by addition of the product under study to the B.P.R.P. before introduction of the aggregating agent.
(§10) The concentrations of compounds of formula I (X) in the B.P.R.P. are: C (X)=2.5×10^-5 g/ml for aggregation with D.P.A. and adrenaline, and C (X)=2×10^-5 g/ml for collagene.
(§11) The reference product (R) is 2,6-bis (diethanolamino)-4,8-dipiperidinopyrimido[5,4-d]pyramidine (known under the trademark "Dipyridamole") used in the concentration C (R)=5×10^-4 g/ml for aggregation with D.P.A. and adrenaline and C (R)=2×10^-4 g/ml for aggregation with collagene.
(§12) The following table IV indicates the activity of some compounds of formula I: a (X) the activity of the reference product: a (R) and the different values of the ratio: [formula]

[2] = tested on: human blood-plaques (aggregation with collagene); test: Inhibition of blood-plaque aggregation induced by collagene; type: cell-based; conditions: for Ratio of a (X) to a (R), COLLAGENE (head drawn): X 2×10^-5 g/ml, R 2×10^-4 g/ml
Excerpt: as §4, §5, §6, §7, §8, §9, §10, §11, §12

rat's isolated duodenum = test: Spasmolytic activity on isolated duodenum contracted by barium chloride (Magnus); conditions: for ED 50 (R) / ED 50 (X): relative to papaverine hydrochloride
Experimental: The spasmolytic activity was studied on a rat's isolated duodenum maintained in a survival medium of an aerated Tyrode solution heated to 38° C. according to the technique of Magnus (Magnus R.-Archivs ges. Physiol., 1905, 180, 1-71).
The contracting agent used was barium chloride, the reference antogonist agent being papaverine hydrochloride (R). The average activity of the compounds of formula I (X) in comparison with that of the reference agent was expressed by calculating the ratio of the 50 efficient doses (ED 50) determined graphically on logarithmic paper: [formula]
For example: a substance having a relative activity expressed by the FIG. 2 presents an activity equal to twice that of papaverine hydrochloride.

[3] = tested on: phenylparaquinone (P.P.Q.) painful syndrome in a mouse; test: Analgesic and anti-inflammatory activity, phenylparaquinone (P.P.Q.) painful syndrome; type: in vivo; conditions: for Analgesic and anti-inflammatory activity, percentage activity a(X): 50 mg/kg digestively, crises between 10 and 15 minutes; for a(X) / a(R), analgesic and anti-inflammatory activity: X 50 mg/kg, R (Galfenine) 25 mg/kg
Experimental: The intraperitoneal injection of phenylparaquinone (P.P.Q.) in a mouse causes the appearance of a painful syndrome appearing within 5 minutes of the injection and disappearing after about 30 minutes (SIEGMUND E. A., CADMUS A., LU G., J. Pharmacol. Exp. Therap. 1957, 119, 453). This painful syndrome manifests itself in the animal by a series of characteristic crises, more or less close together and fleeting, during which we can note a twisting or stretching of the body, a hollowing of the sides and a stretching of the hind legs.
It is therefore possible to note the number of crises in a given interval of time.
The preventive administration of analgesic or anti-inflammatory substances prevents the appearance of crises or reduces the frequency thereof.
The reference substance (R) used in the tests was the ester of N-(7-chloro-4 quinolyl) anthranilic acid and 2,3-dihydroxy n.propanol (known under the trademark Galfenine).
It was administered orally with a dose of 25 mg/kg.
The compounds of formula I (X) were administered digestively with a dose of 50 mg/kg.
The interval of time (t) which was chosen to evaluate the analgesic activity was between 10 and 15 minutes which is the period of maximum frequency of the crises. This activity was expressed in the following way:
n: number of crises observed in the control mice;
n': number of crises observed in mice previously treated with the reference substance (R);
n": number of crises observed in mice having received the substance (X).
The percentage activity of R is equal to [formula]
The percentage activity of X is equal to [formula]
The activity of X in relation to that of R is estimated by the ratio [formula]
For example: a compound X for which [formula] is 0.5 has an activity equal to half that of the reference product.

[4] = Acute toxicity, oral, mouse (LD 50, Miller and Tainter); type: in vivo; conditions: in vivo, po, death rate checked for seven days, read-out: 50% lethal dose (LD 50) (converted)
Experimental: as §1, §2, §3

human blood-plaques = test: Blood-plaque aggregation inhibition (all inducers, overall statement); type: cell-based; conditions: compared with reference product, taking the ratio into account
Excerpt: as §4, §5, §6, §7, §8, §9
The concentrations of compounds of formula I (X) in the B.P.R.P. are: C (X)=2.5×10^-5 g/ml for aggregation with D.P.A. and adrenaline, and C (X)=2×10^-5 g/ml for collagene. […]

[5] = tested on: isolated heart of a gumea-pig; test: Vaso-dilatatory activity, coronary flow of isolated perfused heart
Experimental: The coronary flow is recorded, by means of an electronic device fitted with a Fleish totaliser, before and after addition of the substance X under study (concentration: 1×10^-5 g/ml), the reference product (R) being 2,6-bis (diethanolamino) 4,8-dipiperidinopyrimido[5,4-d]pyrimidine (known under the trademark "Dipyridamole") used at a concentration of 1×10^-5 g/ml.
The percentage flow increase P was calculated at the climax of the activity of X or R.

[6] = tested on: human blood-plaques (aggregation with adrenaline); test: Inhibition of blood-plaque aggregation induced by adrenaline; type: cell-based; conditions: hydrochloride
Excerpt: as §4, §5, §6, §7, §8, §9, §10, §11, §12

O=C(CCCN1CCCCCC1)c1csc2ccccc12 [Compound 16]
50% lethal dose (LD 50) (mouse): 1 200 mg/kg/p.o.
Inhibitory activity of the blood-plaque aggregation, D.P.A., a (X) ([1]; C (X)=2.5×10^-5 g/ml): 47%
Ratio of a (X) to a (R), D.P.A. (head drawn) ([1]; D.P.A., X 2.5×10^-5 g/ml, R 5×10^-4 g/ml): 5.5×10^-1
inhibition at 20 µg/mL ([2]; Homo sapiens, C (X)=2×10^-5 g/ml, read-out: Inhibitory activity of the blood-plaque aggregation, COLLAGENE, a (X)): 92%
Ratio of a (X) to a (R), COLLAGENE (head drawn) [2]: 2.5
ED 50 (R) / ED 50 (X) (rat's isolated duodenum): 2.7
Analgesic and anti-inflammatory activity, percentage activity a(X) [3]: 44%
a(X) / a(R), analgesic and anti-inflammatory activity [3]: 5.9 × 10^-1

O=C(CCCN1CCOCC1)c1csc2ccccc12 [Compound 17]
LD50 at 168 h [4]: 1000 mg/kg
IC50 (rat's isolated duodenum; Rattus norvegicus, barium chloride contraction, Tyrode, 38° C., read-out: Spasmolytic activity ED 50 (X)): 2.15 mg/L (≈ 7.43 µM)
ED 50 (R) / ED 50 (X) (rat's isolated duodenum): 3.4
Analgesic and anti-inflammatory activity, percentage activity a(X) [3]: 55%
a(X) / a(R), analgesic and anti-inflammatory activity [3]: 1.2
Inhibitory activity on the blood-plaque aggregation (in words) (human blood-plaques): substantially superior

CCN(CC)CCCC(=O)c1csc2ccccc12 [Compound 10]
50% lethal dose (LD 50) (mouse): 1 100 mg/kg/p.o.
ED 50 (R) / ED 50 (X) (rat's isolated duodenum): 1.05
activation at 10 µg/mL ([5]; 1×10^-5 g/ml, coronary flow at climax of activity, Locke, 37° C., read-out: Percentage flow increase P (X)): 60%
P (X) / P (R) ([5]; relative to Dipyridamole, both 1×10^-5 g/ml): 1.4

O=C(CCCN1CCOCC1)c1cc2ccccc2s1 [Compound 2, 1-(benzothien-2'-yl)-4-N-morpholino butanone hydrochloride]
50% lethal dose (LD 50) (mouse; hydrochloride): 1 500 mg/kg/p.o.
Inhibitory activity of the blood-plaque aggregation, ADRENALINE, a (X) ([6]; C (X)=2.5×10^-5 g/ml): 15%
Ratio of a (X) to a (R), ADRENALINE (head drawn) ([6]; adrenaline, X 2.5×10^-5 g/ml, R 5×10^-4 g/ml): 1.65×10^-1
Inhibitory activity of the blood-plaque aggregation, COLLAGENE, a (X) ([2]; C (X)=2×10^-5 g/ml, hydrochloride): 12%
Ratio of a (X) to a (R), COLLAGENE (head drawn) ([2]; hydrochloride): 3.3×10^-1
Analgesic and anti-inflammatory activity, percentage activity a(X) ([3]; hydrochloride): 38%
a(X) / a(R), analgesic and anti-inflammatory activity ([3]; hydrochloride): 5 × 10^-1
